The text below walks through data of ChEMBL document CHEMBL1124224, “Synthetic polyamine analogues as antineoplastics” (J Med Chem, 1988).

As a reminder, the inhibition is the percentage by which the read-out fell short of the control. One may read the IC50 as the concentration that gives 50% inhibition. Lower therefore signals greater potency. The ILS is how much longer treated animals lived than controls.

Values joined by “and” are separate entries in the source; they are usually repeats but may differ in a detail not shown here. Equal entries are not always repeated.

Test [1] has as its system L1210. Briefly: Tested for inhibition of L1210 cell growth by the compound at a dose of 30 uM and after 48 hr. In kind it is functional. To be noted: Mus musculus, L1210, 48 h.
The subject of test [2] is L1210. Description: Tested for inhibition of L1210 cell growth by the compound after 96 hr. Format: functional, cell-based. To be noted: Mus musculus, L1210, 96 h.
The subject of test [3] is L1210. Briefly: Tested for inhibition of L1210 cell growth by the compound after 48 hr. Format: functional, cell-based. To be noted: Mus musculus, L1210, 48 h.
Test [4] deals with L1210. Briefly: Tested for inhibition of L1210 cell growth by the compound at a dose of 50 uM and after 48 hr. In kind it is functional. To be noted: Mus musculus, L1210, 48 h.
For test [5], the system named is L1210. Description: Tested for L1210 cell growth as percent of control by the compound at a dose of 100 uM and after 48 hr. To be noted: Mus musculus, L1210, 48 h.
The subject of test [6] is L1210. Description: Tested for inhibition of L1210 cell growth by the compound at a dose of 30 uM and after 96 hr. The conditions noted are these: Mus musculus, L1210, 96 h. Format: functional.
Test [7] relates to L1210. Briefly: Tested for inhibition of L1210 cell growth by the compound at a dose of 25 uM and after 96 hr; No inhibition at 25 uM. The conditions noted are these: Mus musculus. In kind it is functional, cell-based.
The test system of test [8] is L1210. Briefly: Tested for inhibition of L1210 cell growth by the compound at a dose of 25 uM and after 48 hr; No inhibition at 25 uM. In kind it is functional, cell-based. The conditions noted are these: Mus musculus.
For test [9], the system named is L1210. Briefly: Tested for inhibition of L1210 cell growth by the compound at a dose of >12.5 uM and after 48 hr. The conditions noted are these: Mus musculus.
Test [10] concerns L1210. Briefly: Tested for inhibition of L1210 cell growth by the compound at a dose of >12.5 uM and after 96 hr. The conditions noted are these: Mus musculus.
In test [11] the test system is L1210. Briefly: Tested for inhibition of L1210 cell growth by the compound at a dose of 50 uM and after 96 hr; No inhibition at 50 uM. Format: functional, cell-based. To be noted: Mus musculus.
Test [12] concerns L1210. Briefly: Tested for inhibition of L1210 cell growth by the compound at a dose of 50 uM and after 48 hr; No inhibition at 50 uM. Format: functional, cell-based. The conditions noted are these: Mus musculus.
In test [13] the test system is Mus musculus. Description: Mean survival of mice with L1210 leukemia was evaluated on day 60 at 17.5 mg/kg by ip administration (schedule: Q8H,1-6days). The conditions noted are these: route intraperitoneal. Format: functional.
Test [14] has as its system Mus musculus. Briefly: % increase in life span in mice was calculated at 15 mg/kg by ip administration. Format: functional. To be noted: route intraperitoneal.
Test [15] deals with Mus musculus. Briefly: % increase in life span in mice was calculated at 5 mg/kg by ip administration. Format: functional. To be noted: route intraperitoneal.
For test [16], the species on record is Mus musculus. Description: Ratio of survivors to the total mice in the test group; 0/13. Format: functional.
Test [17] relates to L1210. Briefly: Percent of clonogenic L1210 cells to relative to control was determined after the treatment with the compound of 10 uM was for 24 hr. Format: functional, Mus musculus.
Test [18] concerns Mus musculus. Description: % increase in life span in L1210 leukemic mice was calculated at 10 mg/kg by ip administration. To be noted: route intraperitoneal. In kind it is functional.
Test [19] can be described thus: Ratio of survivors to the total mice in the test group; 0/47. In kind it is functional.
In test [20] the test system is Mus musculus. Description: % increase in life span in L1210 leukemic mice was calculated at 17.5 mg/kg by ip administration. Format: functional. To be noted: route intraperitoneal.
Test [21] has as its system HL-60. Briefly: Inhibitory concentration against growth of cultured HL-60 cells at 144 hrs. Format: functional, cell-based. To be noted: Homo sapiens, HL-60, 144 h.
Test [22] concerns Mus musculus. Description: Mean survival of mice with 10e 5 L1210 cells was evaluated on day 60 at 15 mg/kg by ip administration (schedule: Q12H,1-6days). To be noted: route intraperitoneal. In kind it is functional.
The test system of test [23] is L1210. Description: Percent of clonogenic L1210 cells to relative to control was determined after the treatment with the compound of 10 uM was for 72 hr. In kind it is functional, Mus musculus.
Test [24] can be described thus: Ratio of survivors to the total mice in the test group; 4/8. Format: functional.
Test [25] has as its system Mus musculus. Description: Mean survival of L1210 leukemic mice was evaluated on day 60 at 15 mg/kg by ip administration (schedule: Q8H,1-6days). In kind it is functional. To be noted: route intraperitoneal.
The subject of test [26] is Mus musculus. Description: % increase in life span in L1210 leukemic mice was calculated at 20 mg/kg by ip administration. In kind it is functional. To be noted: route intraperitoneal.
Test [27] in a line: Ratio of survivors to the total mice in the test group; 9/16. Format: functional.
For test [28], the system named is Mus musculus. Description: Mean survival of mice with L1210 leukemia on day 60 at 5 mg/kg by ip administration (schedule: Q8H,1-6days). In kind it is functional. The conditions noted are these: route intraperitoneal.
In test [29] the test system is Mus musculus. Description: Mean survival of mice with L1210 leukemia was evaluated on day 60 at 20 mg/kg by ip administration (schedule: Q8H,1-3days). Format: functional. The conditions noted are these: route intraperitoneal.
For test [30], the system named is L1210. Briefly: Percent of clonogenic L1210 cells to relative to control was determined after the treatment with the compound of 10 uM was for 48 hr. Format: functional, Mus musculus.
Test [31] is described as follows: Ratio of survivors to the total mice in the test group; 0/6. Format: functional.
Test [32] in a line: Inhibitory concentration against growth of cultured […] cells at 144 hrs. Format: functional. The conditions noted are these: Homo sapiens.
Test [33] is described as follows: Ratio of survivors to the total mice in the test group; 0/4. Format: functional.
The subject of test [34] is Mus musculus. Briefly: % increase in life span in L1210 leukemic mice was calculated at 15 mg/kg by ip administration. In kind it is functional. The conditions noted are these: route intraperitoneal.
Test [35] relates to Mus musculus. Description: Mean survival of mice with L1210 leukemia was evaluated on day 60 at 20 mg/kg by ip administration (schedule: Q8H,1-4days). To be noted: route intraperitoneal. In kind it is functional.
Test [36] is described as follows: Ratio of survivors to the total mice in the test group; 0/10. Format: functional.
A short description of test [37]: Ratio of survivors to the total mice in the test group; 0/8. In kind it is functional.
Test [38] deals with L1210. Briefly: Percent of clonogenic L1210 cells to relative to control was determined after the treatment with the compound of 10 uM was for 96h. Format: functional, Mus musculus.
Test [39] is filed under the species Mus musculus. Description: Mean survival of mice with L1210 leukemia was evaluated on day 60 with no treatment. In kind it is functional.
Test [40] in a line: Inhibitory concentration against growth of cultured […] cells at 72 hrs. Format: functional. To be noted: Homo sapiens.
The subject of test [41] is Mus musculus. Briefly: Mean survival of mice with L1210 leukemia was evaluated on day 60 at 10 mg/kg by ip administration (schedule: Q8H,1-6days). Format: functional. The conditions noted are these: route intraperitoneal.
Test [42] deals with HL-60. Briefly: Inhibitory concentration against growth of cultured HL-60 cells at 72 hrs. Format: functional, cell-based. The conditions noted are these: Homo sapiens, HL-60, 72 h.

As for `CCNCCCCNCCCNCC`, at 30 µM the inhibition in the test on L1210 [1] was 61%. Moreover, in the test with L1210 [2], half-maximal inhibition (IC50) was put at 10000 nM.

Regarding `CCNCCCNCCCNCCCCNCCCNCCCNCC`, the values for the half-inhibitory concentration (IC50) in the test on L1210 [3] and in the test on L1210 [2] were 50000 nM and 500 nM, respectively.

Turning to `CCCNCCCNCCCCNCCCNCCC`, the IC50 in the test on L1210 [3] worked out at 3000 nM; in the test with L1210 [2], 200 nM.

Turning to `CCN(CC)CCCNCCCCNCCCN(CC)CC`, the IC50 with L1210 [2] came to 5000 nM. In addition, the inhibition at 50 µM in the test with L1210 [4] is 80%.

For `CCNCCCN(CC)CCCCN(CC)CCCNCC`, the IC50 in the test with L1210 [3] was 100000 nM; in the test on L1210 [2] it was 3000 nM.

Take `CNCCCNCCCCNCCCNC`: the control growth at 100 µM with L1210 [5] stood at 60%. The same compound yielded an IC50 in the test on L1210 [2] of 750 nM.

Regarding `CCCNCCCCNCCCNCCC`, the inhibition at 30 µM with L1210 [6] came out at 83%; in the test with L1210 [1], 88%.

As to `CCN(CCCN)CCCCN(CC)CCCN`, the inhibition result in the test with L1210 [7] and in the test on L1210 [8] was “No inhibition” each time.

As for `CCNCCCCCCCCCCCCNCC`, the inhibition result with L1210 [9] and in the test on L1210 [10] was “No inhibition” throughout.

For the compound `CCNCCCN1CCN(CCCNCC)CC1`, the inhibition entry in the test with L1210 [11] and in the test with L1210 [12] was “No inhibition” throughout.

Regarding `CCNCCCNCCCCNCCCNCC` [BIS(ETHYL)SPERMINE], the Mean survival in the test with Mus musculus [13] came to 52.3 days; in the test on Mus musculus [22], 14.9 days; in the test on Mus musculus [25], 46.6 days; in the test with Mus musculus [28], 12.3 days; with Mus musculus [29], 14 days; in the test with Mus musculus [35] it was 18.1 days. In addition, the Mean survival in the test listed under Mus musculus [39] is 9.7 days and 8.9 days; in the test with Mus musculus [41], 35.3 days. The ILS at 15 mg/kg is 376% in the test on Mus musculus [14] and 55% in the test on Mus musculus [34]. Further, the ILS at 5 mg/kg in the test with Mus musculus [15] is 25%. Also, the IC50 in the test with L1210 [3] was 10000 nM; with HL-60 [21], 300 nM; in test [32], 500 nM; in the test on L1210 [2], 100 nM; in test [40], greater than 40000 nM; in the test with HL-60 [42], 10000 nM. Also, the S/T in the test listed under Mus musculus [16] was 0; in test [19], 0; in test [24], 0.5; in test [27] it was 0.562; in test [31] it was 0; in test [33], 0. The S/T in test [36] and in test [37] was 0 throughout. For the same compound, the Clones is 100% with L1210 [17], 21% with L1210 [23], 75% in the test with L1210 [30] and 2% in the test with L1210 [38]. Moreover, the ILS at 10 mg/kg in the test on Mus musculus [18] was 264%. Also, in the test with Mus musculus [20], the ILS at 17.5 mg/kg was 439%. For the same compound, the ILS in the test with Mus musculus [26] was 57% and 103%.
